Experimental data as given in patent US20240199546A1, “INHIBITORS OF SOLUTE CARRIER FAMILY 6A MEMBER 19 (SLC6A19) AND METHODS OF USE THEREOF” (Maze Therapeutics, Inc., priority 2022, published 2024).

Each compound was assayed against T1, human SLC6A19 and TMEM27 (Homo sapiens, UniProt Q695T7) (assay: Radiolabelled (3H) leucine uptake in CHO cells with doxycycline-inducible expression of human SLC6A19 and TMEM27 (Example B-1)). Details: CHO cells with doxycycline-inducible expression of human SLC6A19 and TMEM27, read-out: SLC6A19_Radioligand Uptake Assay IC50.
T1 construct: expressed in transfected cells
T1 sequence (Q695T7 1-634): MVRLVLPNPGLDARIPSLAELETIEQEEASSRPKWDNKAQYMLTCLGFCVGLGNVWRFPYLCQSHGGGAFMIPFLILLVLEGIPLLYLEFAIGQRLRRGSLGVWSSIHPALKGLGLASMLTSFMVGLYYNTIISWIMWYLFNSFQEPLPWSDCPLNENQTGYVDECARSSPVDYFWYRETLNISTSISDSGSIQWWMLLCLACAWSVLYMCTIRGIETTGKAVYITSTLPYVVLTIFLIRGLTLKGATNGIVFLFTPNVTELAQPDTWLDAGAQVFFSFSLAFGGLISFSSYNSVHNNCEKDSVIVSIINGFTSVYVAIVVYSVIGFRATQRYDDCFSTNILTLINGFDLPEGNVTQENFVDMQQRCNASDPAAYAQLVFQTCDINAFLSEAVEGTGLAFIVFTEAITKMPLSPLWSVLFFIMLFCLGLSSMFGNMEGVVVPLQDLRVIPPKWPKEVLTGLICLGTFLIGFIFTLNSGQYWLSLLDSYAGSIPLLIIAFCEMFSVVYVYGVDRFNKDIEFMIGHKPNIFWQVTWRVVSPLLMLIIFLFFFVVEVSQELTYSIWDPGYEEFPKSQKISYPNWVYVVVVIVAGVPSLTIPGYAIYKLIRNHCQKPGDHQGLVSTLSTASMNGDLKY
T1 sequence (Q9HBJ8 15-222 partner): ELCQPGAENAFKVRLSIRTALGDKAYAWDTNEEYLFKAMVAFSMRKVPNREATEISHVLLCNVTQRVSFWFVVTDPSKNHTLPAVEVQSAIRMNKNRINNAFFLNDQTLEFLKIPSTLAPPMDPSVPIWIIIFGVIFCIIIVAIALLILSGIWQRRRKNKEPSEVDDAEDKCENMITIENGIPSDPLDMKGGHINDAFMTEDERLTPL
Type: cell-based
Method in brief: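 CHO cells were induced with doxycycline for 18 h at 37 °C, washed in HBSS, then exposed to compounds for 1 h: 8-point, 3-fold dilutions in duplicate, 0.5% DMSO final. Uptake measured by scintillation counting after 2 h shaking. Activity normalized with positive control as 0% and DMSO as 100%.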

Compound	IC50 [nM]
CC1(C(=O)NCc2cc3cc(F)c(CNc4ccon4)cc3[nH]2)CC1 [Compound 611, N-((5-fluoro-6-((isoxazol-3-ylamino)methyl)-1H-indol-2-yl)methyl)-1-methylcyclopropane-1-carboxamide]	842
O=C(CO)NCc1cc2cc(Cl)c(OCc3cscn3)cc2[nH]1 [Compound 244, N-((5-chloro-6-(thiazol-4-ylmethoxy)-1H-indol-2-yl)methyl)-2-hydroxyacetamide]	391
CN(C)CC(=O)NCc1cc2cc(Cl)c(OCc3cscn3)cc2[nH]1 [Compound 580, N-((5-chloro-6-(thiazol-4-ylmethoxy)-1H-indol-2-yl)methyl)-2-(dimethylamino)acetamide]	620
CC1(C(=O)NCc2cc3cc(Cl)c(CCn4ccnn4)cc3[nH]2)CC1 [Compound 583, N-((6-(2-(1H-1,2,3-triazol-1-yl)ethyl)-5-chloro-1H-indol-2-yl)methyl)-1-methylcyclopropane-1-carboxamide]	1520
CC(=O)NCc1cc2cc(Cl)c(OCCOC3CCC3)cc2[nH]1 [Compound 456, N-((5-chloro-6-(2-cyclobutoxyethoxy)-1H-indol-2-yl)methyl)acetamide]	4260
CC1(C(=O)NCc2cc3cc(C4CC4(F)F)c(OCc4ccon4)cc3[nH]2)CC1 (racemic) [Compound 658, N-((5-(2,2-difluorocyclopropyl)-6-(isoxazol-3-ylmethoxy)-1H-indol-2-yl)methyl)-1-methylcyclopropane-1-carboxamide]	590
O=C(CC(F)F)NCc1cc2cc(F)c(OCc3cscn3)cc2[nH]1 [Compound 516, 3,3-difluoro-N-((5-fluoro-6-(thiazol-4-ylmethoxy)-1H-indol-2-yl)methyl)propanamide]	88.9
CC1(C(=O)NCc2cc3cc(-c4ccno4)c(OCc4cscn4)cc3[nH]2)CC1 [Compound 660, N-((5-(isoxazol-5-yl)-6-(thiazol-4-ylmethoxy)-1H-indol-2-yl)methyl)-1-methylcyclopropane-1-carboxamide]	1580
CC(C)C(=O)NCc1cc2cc(F)c(OCc3ccon3)cc2[nH]1 [Compound 138, N-((5-fluoro-6-(isoxazol-3-ylmethoxy)-1H-indol-2-yl)methyl)isobutyramide]	353
CC1(C(=O)NCc2cc3cc(C4(F)CC4)c(OCc4ccon4)cc3[nH]2)CC1 [Compound 655, N-((5-(1-fluorocyclopropyl)-6-(isoxazol-3-ylmethoxy)-1H-indol-2-yl)methyl)-1-methylcyclopropane-1-carboxamide]	> 7300
CC(F)(F)C(=O)NCc1cc2cc(Cl)c(OCc3cscn3)cc2[nH]1 [Compound 435, N-((5-chloro-6-(thiazol-4-ylmethoxy)-1H-indol-2-yl)methyl)-2,2-difluoropropanamide]	133
O=C(NCc1cc2cc(Cl)c(OCc3cscn3)cc2[nH]1)N1CCC(F)C1 (stereo not drawn) [Compound 93, N-((5-chloro-6-(thiazol-4-ylmethoxy)-1H-indol-2-yl)methyl)-3-fluoropyrrolidine-1-carboxamide]	177
O=C(CN1CCC1)NCc1cc2cc(Cl)c(OCc3cscn3)cc2[nH]1 [Compound 512, 2-(azetidin-1-yl)-N-((5-chloro-6-(thiazol-4-ylmethoxy)-1H-indol-2-yl)methyl)acetamide]	6780
CC1(C(=O)NCc2cc3cc(CCC#N)c(OCc4ccon4)cc3[nH]2)CC1 [Compound 642, N-((5-(2-cyanoethyl)-6-(isoxazol-3-ylmethoxy)-1H-indol-2-yl)methyl)-1-methylcyclopropane-1-carboxamide]	2740
O=C(NCc1cc2cc(F)c(OCc3ccon3)cc2[nH]1)N1CCC1 [Compound 89, N-((5-fluoro-6-(isoxazol-3-ylmethoxy)-1H-indol-2-yl)methyl)azetidine-1-carboxamide]	567

Now from value to compound:

IC50 [nM]	Compound
4480	CN1CC(C(=O)NCc2cc3cc(Cl)c(OCc4cscn4)cc3[nH]2)C1=O (racemic) [Compound 546, (R)-N-((5-chloro-6-(thiazol-4-ylmethoxy)-1H-indol-2-yl)methyl)-1-methyl-2-oxoazetidine-3-carboxamide and (S)-N-((5-chloro-6-(thiazol-4-ylmethoxy)-1H-indol-2-yl)methyl)-1-methyl-2-oxoazetidine-3-carboxamide]
657	Cc1cc(COc2cc3[nH]c(CNC(=O)N4CCC4C(F)F)cc3cc2Cl)on1 (racemic) [Compound 581, (S)-N-((5-chloro-6-((3-methylisoxazol-5-yl)methoxy)-1H-indol-2-yl)methyl)-2-(difluoromethyl)azetidine-1-carboxamide and (R)-N-((5-chloro-6-((3-methylisoxazol-5-yl)methoxy)-1H-indol-2-yl)methyl)-2-(difluoromethyl)azetidine-1-carboxamide]
1770	COC(=O)NCc1cc2cc(F)c(OCc3cc(C)no3)cc2[nH]1 [Compound 621, methyl ((5-fluoro-6-((3-methylisoxazol-5-yl)methoxy)-1H-indol-2-yl)methyl)carbamate]
411	Cc1cc(COc2cc3[nH]c(CNC(=O)[C@H](O)CF)cc3cc2Cl)on1 [Compound 246, (S)-N-((5-chloro-6-((3-methylisoxazol-5-yl)methoxy)-1H-indol-2-yl)methyl)-3-fluoro-2-hydroxypropanamide]
814	Cc1cc(COc2cc3[nH]c(CNC(=O)[C@@H]4COCCO4)cc3cc2Cl)on1 [Compound 303, (S)-N-((5-chloro-6-((3-methylisoxazol-5-yl)methoxy)-1H-indol-2-yl)methyl)-1,4-dioxane-2-carboxamide]
140	Cc1cc(COc2cc3[nH]c(CNC(=O)[C@@H](C)O)cc3cc2Cl)on1 [Compound 256, (R)-N-((5-chloro-6-((3-methylisoxazol-5-yl)methoxy)-1H-indol-2-yl)methyl)-2-hydroxypropanamide]
168	O=C(NCc1cc2cc(Cl)c(OCc3cscn3)cc2[nH]1)[C@H]1CCOC1 [Compound 308, (S)-N-((5-chloro-6-(thiazol-4-ylmethoxy)-1H-indol-2-yl)methyl)tetrahydrofuran-3-carboxamide]
2750	Cc1cc(COc2cc3[nH]c(CNC(=O)[C@@H]4CCN4)cc3cc2Cl)on1 [Compound 448, (S)-N-((5-chloro-6-((3-methylisoxazol-5-yl)methoxy)-1H-indol-2-yl)methyl)azetidine-2-carboxamide]
1110	Cc1cc(COc2cc3[nH]c(CNC(=O)N4CCCC4)cc3cc2F)on1 [Compound 118, N-((5-fluoro-6-((3-methylisoxazol-5-yl)methoxy)-1H-indol-2-yl)methyl)pyrrolidine-1-carboxamide]
5290	Cc1cc(COc2cc3[nH]c(CNC(=O)C[C@H]4CCOC4)cc3cc2Cl)on1 [Compound 290, (R)-N-((5-chloro-6-((3-methylisoxazol-5-yl)methoxy)-1H-indol-2-yl)methyl)-2-(tetrahydrofuran-3-yl)acetamide]
627	Cc1cc(COc2cc3[nH]c(CNC(=O)[C@H]4CC[C@@H]4O)cc3cc2Cl)on1 (racemic) [Compound 248, (1R,2R)-N-((5-chloro-6-((3-methylisoxazol-5-yl)methoxy)-1H-indol-2-yl)methyl)-2-hydroxycyclobutane-1-carboxamide and (1S,2S)-N-((5-chloro-6-((3-methylisoxazol-5-yl)methoxy)-1H-indol-2-yl)methyl)-2-hydroxycyclobutane-1-carboxamide]
17600	CC(C)c1cc(COc2cc3[nH]c(CNC(=O)C4(C)CC4)cc3cc2Cl)no1 [Compound 102, N-((5-chloro-6-((5-isopropylisoxazol-3-yl)methoxy)-1H-indol-2-yl)methyl)-1-methylcyclopropane-1-carboxamide]
500	O=C(NCc1cc2cc(Cl)c(OCc3cscn3)cc2[nH]1)[C@@H]1CCCO1 [Compound 293, (S)-N-((5-chloro-6-(thiazol-4-ylmethoxy)-1H-indol-2-yl)methyl)tetrahydrofuran-2-carboxamide]
317	Cc1cc(COc2cc3[nH]c(CNC(=O)[C@@H]4CCCO4)cc3cc2Cl)on1 [Compound 312, (S)-N-((5-chloro-6-((3-methylisoxazol-5-yl)methoxy)-1H-indol-2-yl)methyl)tetrahydrofuran-2-carboxamide]

Same assay, conditions: SLC6A19_Radioligand Uptake Assay IC50, CHO cells with doxycycline-inducible expression of human SLC6A19 and TMEM27

Compound	IC50 [nM]
Cc1cc(COc2cc3[nH]c(CNC(N)=O)cc3cc2Cl)on1 [Compound 637, 1-((5-chloro-6-((3-methylisoxazol-5-yl)methoxy)-1H-indol-2-yl)methyl)urea]	376
